The source made the active and inactive calls. The calls are words filed in the database; no cut-off is given here.
Tests used:
A 172 [1] = assay: Cytotoxicity against TMZ-resistant human A 172 cells assessed as reduction in cell viability upto 30 uM by MTT assay; assay type: functional, cell-based; conditions: dose microM <=30, time hrs <=72, TDE = time-dependent effect
A 172 [2] = assay: Induction of cell cycle arrest in human A 172 cells assessed as accumulation at G2/M phase by propidium iodide staining based flow cytometric analysis; assay type: functional; conditions: dose microM <=10
[3] = target: T1, Protein deacetylase HDAC6 (Homo sapiens, UniProt Q9UBN7); assay: Inhibition of human recombinant HDAC6 expressed in baculovirus infected insect cells using [RHKK(Ac)] fluorogenic substrate
T1 sequence (Q9UBN7 whole entry): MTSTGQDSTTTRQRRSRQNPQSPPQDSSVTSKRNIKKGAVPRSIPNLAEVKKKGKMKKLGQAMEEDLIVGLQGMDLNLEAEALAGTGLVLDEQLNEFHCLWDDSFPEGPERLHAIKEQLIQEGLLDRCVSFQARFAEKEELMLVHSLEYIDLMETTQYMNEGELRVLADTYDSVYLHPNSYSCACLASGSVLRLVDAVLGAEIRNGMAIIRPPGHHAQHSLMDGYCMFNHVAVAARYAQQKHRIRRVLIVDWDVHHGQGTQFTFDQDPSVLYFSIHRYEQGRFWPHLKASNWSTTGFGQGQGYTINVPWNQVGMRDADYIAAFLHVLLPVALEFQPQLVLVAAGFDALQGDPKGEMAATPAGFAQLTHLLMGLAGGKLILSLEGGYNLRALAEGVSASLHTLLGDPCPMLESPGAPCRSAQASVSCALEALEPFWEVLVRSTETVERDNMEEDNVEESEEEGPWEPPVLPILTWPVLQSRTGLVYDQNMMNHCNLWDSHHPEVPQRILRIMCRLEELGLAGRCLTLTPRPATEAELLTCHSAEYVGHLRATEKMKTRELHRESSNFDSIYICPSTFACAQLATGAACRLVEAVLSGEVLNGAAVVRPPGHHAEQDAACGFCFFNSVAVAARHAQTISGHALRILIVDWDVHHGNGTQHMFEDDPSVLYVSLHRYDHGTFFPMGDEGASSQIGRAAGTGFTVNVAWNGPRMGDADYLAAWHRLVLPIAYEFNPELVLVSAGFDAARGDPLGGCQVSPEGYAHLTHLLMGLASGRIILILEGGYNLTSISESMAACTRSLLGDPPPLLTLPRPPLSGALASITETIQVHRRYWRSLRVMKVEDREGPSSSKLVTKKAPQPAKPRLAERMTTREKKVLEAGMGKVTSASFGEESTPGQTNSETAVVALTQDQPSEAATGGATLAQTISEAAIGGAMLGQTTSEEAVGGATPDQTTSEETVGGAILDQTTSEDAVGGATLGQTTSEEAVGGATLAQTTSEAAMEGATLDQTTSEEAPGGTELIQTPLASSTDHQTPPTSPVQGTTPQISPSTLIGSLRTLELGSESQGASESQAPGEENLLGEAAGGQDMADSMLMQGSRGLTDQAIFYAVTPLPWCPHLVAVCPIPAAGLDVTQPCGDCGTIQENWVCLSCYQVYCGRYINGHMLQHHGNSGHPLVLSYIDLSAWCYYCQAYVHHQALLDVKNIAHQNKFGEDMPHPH

A 172 [4] = assay: Downregulation of PCNA expression in human A 172 cells upto 10 uM measured after 24 hrs by Western blot analysis; assay type: functional, cell-based; conditions: dose microM <=10, time 24.0 hrs
Glioblastoma cell line [5] = assay: Cytotoxicity against TMZ-resistant human glioblastoma cell P5 cells assessed as reduction in cell viability upto 72 hrs by MTT assay; assay type: functional, cell-based; conditions: dose microM <=30, time hrs <=72
A 172 [6] = assay: Induction of apoptosis in human A 172 cells assessed as upregulation of cleaved PARP at 3 uM after 24 hrs by western blot analysis; assay type: functional, cell-based
Glioblastoma cell line [7] = assay: Cytotoxicity against human glioblastoma cell P5 cells assessed as reduction in cell viability upto 72 hrs by MTT assay; assay type: functional, cell-based; conditions: dose microM <=30, time hrs <=72
A 172 [8] = assay: Cytotoxicity against human A 172 cells assessed as reduction in cell viability upto 30 uM by MTT assay; assay type: functional, cell-based; conditions: dose microM <=30, time hrs <=72, TDE = time-dependent effect
A 172 [9] = assay: Induction of cell cycle arrest in human A 172 cells assessed as increase in histone alpha-tubulin-K40 acetylation upto 10 uM for 24 hrs by Western blot analysis; assay type: functional, cell-based; conditions: dose microM <=10, time 24.0 hrs
A 172 [10] = assay: Induction of cell cycle arrest in human A 172 cells assessed as accumulation at G0/G1 phase by propidium iodide staining based flow cytometric analysis; assay type: functional; conditions: dose microM <=10
[11] = target: Cyclin-dependent kinase 1/cyclin B1 (Homo sapiens) (UniProt P06493+P14635); assay: Inhibition of CDK1/Cyclin B interaction in human A 172 cells assessed as CDK1 acetylation at 3 uM for 24 hrs by Western blot analysis; assay type: cell-based
Cyclin-dependent kinase 1/cyclin B1 (Homo sapiens), sequence (P06493 whole entry, looked up): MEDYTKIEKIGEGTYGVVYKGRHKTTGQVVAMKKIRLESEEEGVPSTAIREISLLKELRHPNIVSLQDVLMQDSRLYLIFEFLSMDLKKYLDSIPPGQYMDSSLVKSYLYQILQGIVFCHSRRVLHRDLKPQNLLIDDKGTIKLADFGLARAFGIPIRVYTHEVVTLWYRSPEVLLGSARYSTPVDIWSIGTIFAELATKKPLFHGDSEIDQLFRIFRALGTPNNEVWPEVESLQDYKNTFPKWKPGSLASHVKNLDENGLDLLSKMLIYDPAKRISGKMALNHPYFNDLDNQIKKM
Cyclin-dependent kinase 1/cyclin B1 (Homo sapiens), sequence (P14635 whole entry, looked up): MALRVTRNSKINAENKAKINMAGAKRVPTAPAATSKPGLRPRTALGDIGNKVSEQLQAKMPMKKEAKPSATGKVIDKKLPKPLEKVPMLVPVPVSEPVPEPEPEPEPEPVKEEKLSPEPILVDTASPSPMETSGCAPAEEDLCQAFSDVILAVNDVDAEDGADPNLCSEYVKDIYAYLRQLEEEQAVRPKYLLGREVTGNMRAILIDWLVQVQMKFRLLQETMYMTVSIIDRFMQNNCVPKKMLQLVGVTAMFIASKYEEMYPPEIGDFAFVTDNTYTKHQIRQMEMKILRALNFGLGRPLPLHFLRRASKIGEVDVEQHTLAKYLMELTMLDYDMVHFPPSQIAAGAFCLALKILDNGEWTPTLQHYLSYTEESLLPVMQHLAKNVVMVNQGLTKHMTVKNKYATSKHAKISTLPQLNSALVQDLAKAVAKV

In the case of `CC12CC3CC(C)(C1)CC(NCc1ccc(NC(=O)CCCCCCC(=O)NO)cc1)(C3)C2`, the Activity (A 172 [1]) is reported as “Tde”, the Activity (A 172 [2]) is reported as “Dose-Dependent Effect” and the IC50 [3] is reported as 5.42 nM. For the same compound, the Activity (A 172 [4]) was “inactive”, the Activity (Glioblastoma cell line [5]) was “Dose-Dependent Effect” and the Activity (A 172 [6]) was “Active”. The Activity (Glioblastoma cell line [7]) was “Dose-Dependent Effect”, the Activity (A 172 [8]) was “Tde” and the Activity (A 172 [9]) was “Active”. For the same compound, the Activity (A 172 [10]) was “Dose-Dependent Effect” and the Activity [11] was “Active”.
